These results are taken from US12552776B2, “Crystalline forms” (priority 2021, dated 2026).

In general, solubility refers to the dissolved amount per volume that the medium holds. A lower solubility goes with little dissolved substance. The fraction remaining is what is left of the initial amount, in per cent. High values mean less turnover, low ones more turnover.

The nature of series [1]: Hygroscopicity study by dynamic vapor sorption (DVS) analysis. In kind it is physicochemical. The settings on record: for water absorbed (water adsorption): 90% RH at 25° C.; for weight gain %: 25° C., DVS sorption. The method, then:
Hygroscopicity study is performed using Surface Measurement Systems DVS-1. The sample is placed on a microbalance in the instrument and the weight change during the sorption at 25° C. is monitored. One of the programs consists of a sorption scan from 0 to 90% relative humidity (RH) at 5% RH increments and the sample is allowed to equilibrate for 360 minutes or until equilibration had been attained at each step.
The hygroscopicity study is performed by using dynamic vapor sorption (DVS) analysis.

The format of series [2] is physicochemical. As to conditions: for other arising degradation products (not existing at Day 0) / remaining: 40° C./75% RH, storage period of 50 days, HPLC. As to the method:
(§1) • HPLC data are obtained by Waters Alliance 2695 HPLC system with 2996 PDA detector using the following conditions; • Column: XBridge Phenyl (3.5 micrometers, 4.6×150 mm), • Eluent: acetonitrile/0.3% perchloric acid=35:65, • Detection: UV at 215 nm, • Flow rate: 1 mL/min, and • Column temperature: 40° C.
Solid-state stability study is performed using Nagano Science Constant temperature/humidity control chamber LH-20-11M, LH-21-11M, LTL-200D3CJ-14 or LTX-01. The samples are placed in the chamber and exposed under 25° C./60% RH, 40° C./75% RH and/or irradiated with the light such as D65 lamp or Xenon lamp. The crystalline form, thermal behavior, purity and/or weight change of the resultant sample after the exposure or irradiation are evaluated by XRPD, TG/DTA or DSC, HPLC, microbalance, respectively.

Series [3] in a line: Photostability study, D65 lamp 4000 lux, 25° C./60% RH, HPLC. It is filed as physicochemical. As to the method: as §1
Photostability samples are set in Nagano Science LTL-200D3CJ-14. The samples are placed in the chamber and stored under 25° C./60% RH condition and irradiated with a D65 lamp on light condition of 4000 lux. HCl-salt Crystalline Form A, HCl-salt Amorphous, and Free-base Amorphous samples store for 13, 26 and 50 days under the condition are analyzed by HPLC, respectively.
FIGS. 7, 8 and 9 show the data of degradation products except for the existing products at initial samples (Day 0), i.e., definitely arising peaks on the HPLC chart after storing initial samples under light exposure. The relative retention time (RRT) represents a ratio of retention time (RT) of a target peak to RT of the main peak. In case of the appearance of the peak at same RRT at least two consecutive storing periods of 13, 26 and 50 days, the arising peak is recognized as a degradation product.

Series [4] can be described thus: Solubility study in buffers and water for injection. In kind it is physicochemical. The settings on record: aqueous buffer, thermodynamic from solid, buffers pH 1.06, 2.98, 4.44, 7.34, 7.40, 9.22 and WFI, 5 mg in 20 microL. The method, then: Each 5 mg of HCl-salt Crystalline Form A was weighed in a vial and each 20 microL of buffers (pH 1.06, 2.98, 4.44, 7.34, 7.40 and 9.22) and WFI (water for injection) was added to the vial. After the mixture was shaken with a vortex mixer and stood still for 15 min, no insoluble matter was observed. The mixture kept a clear solution after still standing for 2 days.

Series [5] deals with T1, motilin receptor (Homo sapiens, UniProt O43193).
T1 construct: 'the cell expressing motilin receptor and reporter gene'
Briefly: Motilin receptor agonistic activity, reporter gene assay. As to conditions: cell expressing motilin receptor and reporter gene; compared with initial sample. In kind it is cell-based. From the text:
Motilin receptor agonistic activity is identified by reporter gene assay using the cell expressing motilin receptor and reporter gene. The dose-response curve of assay sample is plotted and calculated to determine an agonistic activity (EC50).

The nature of series [6]: Chiral analysis by HPLC. In kind it is physicochemical. The settings on record: CHIRALPAK IC HPLC. The method, then: • High Performance Liquid Chromatography (HPLC) measurement • HPLC data are obtained by Waters Alliance 2695 HPLC system with 2996 PDA detector using the following conditions; • Column: DAICEL CHIRALPAK IC (5 micrometers, 4.6×250 mm), • Eluent: n-hexane/ethanol/diethylamine=87/13/0.1 (v/v/v), • Detection: UV at 254 nm, • Flow rate: 1 mL/min, and • Column temperature: 40° C. • Data processing is performed with Empower 3 software supplied from Waters Corporation

The structures appear in SMILES notation. Structures can show the parent of a compound that is named as a salt.

T1 sequence (O43193 whole entry, species assumed): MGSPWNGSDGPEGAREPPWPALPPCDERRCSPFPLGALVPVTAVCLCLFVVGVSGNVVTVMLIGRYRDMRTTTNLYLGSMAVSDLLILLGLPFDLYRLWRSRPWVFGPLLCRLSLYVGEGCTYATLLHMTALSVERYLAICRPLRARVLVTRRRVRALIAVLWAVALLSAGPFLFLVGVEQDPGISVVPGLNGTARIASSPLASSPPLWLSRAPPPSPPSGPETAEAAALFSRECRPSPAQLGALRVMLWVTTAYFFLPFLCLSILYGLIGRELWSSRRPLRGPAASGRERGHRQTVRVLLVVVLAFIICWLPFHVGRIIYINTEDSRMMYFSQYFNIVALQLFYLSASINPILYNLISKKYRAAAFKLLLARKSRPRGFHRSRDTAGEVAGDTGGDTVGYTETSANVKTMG

As for `CC1(C)C(=O)N(C2CCN(C(=O)[C@H](CCc3ccccc3)NC(=O)[C@@H]3CCCNC3)CC2)c2ccccc21.CS(=O)(=O)O` [mesylate salt crystalline, (R)—N—((S)-1-(4-(3,3-dimethyl-2-oxoindolin-1-yl)piperidin-1-yl)-1-oxo-4-phenylbutan-2-yl)piperidine-3-carboxamide methanesulfonic acid salt (mesylate salt)], in series [1] (60% RH), the water adsorption is 3.7 wt %. In series [1], the “water absorbed (water adsorption)” value is 16.9 wt %.

For the molecule `CC1(C)C(=O)N(C2CCN(C(=O)[C@H](CCc3ccccc3)NC(=O)[C@@H]3CCCNC3)CC2)c2ccccc21` [HCl-salt Crystalline Form A, (R)—N—((S)-1-(4-(3,3-dimethyl-2-oxoindolin-1-yl)piperidin-1-yl)-1-oxo-4-phenylbutan-2-yl)piperidine-3-carboxamide hydrochloride Crystalline Form A], the weight gain % in series [1] (50% RH) is 0.0%; in series [1] (60% RH) it was 0.2%; in series [1] (70% RH), 0.4%; in series [1] (80% RH), 1.6%; in series [1] (90% RH), 3.4%. In addition, the “water absorbed (water adsorption)” value in series [1] is “less than or equal to 3.4 wt %”. In series [2], the “other arising degradation products (not existing at Day 0)” value is reported as “no other arising degradation products”. The “changes in appearance, XRPD, IR (KBr), m.p. (DSC onset) and potency” value in series [2] (during the storage period) was “no significant changes”. In addition, the “arising degradation products due to irradiating light” value in series [3] (storing periods of 13, 26 and 50 days) is “no arising degradation products”. In series [4], this molecule had a solubility at 15 min of over 250 mg/mL. The “agonistic activity (EC50)” value in series [5] is reported as “high potency consistent with initial sample”. The “stability in chiral analysis” value in series [6] was “preferable stability”.

With `CC1(C)C(=O)N(C2CCN(C(=O)[C@H](CCc3ccccc3)NC(=O)[C@@H]3CCCNC3)CC2)c2ccccc21.O=C(O)CNC(=O)c1ccccc1` [hippurate salt crystalline, (R)—N—((S)-1-(4-(3,3-dimethyl-2-oxoindolin-1-yl)piperidin-1-yl)-1-oxo-4-phenylbutan-2-yl)piperidine-3-carboxamide hippuric acid salt (hippurate salt)], in series [1] (90% RH), the “observation in hygroscopicity study” value is “partial deliquescence is observed”. The “water absorbed (water adsorption)” value in series [1] is 16.0 wt %.

For the molecule `CC1(C)C(=O)N(C2CCN(C(=O)[C@H](CCc3ccccc3)NC(=O)[C@@H]3CCCNC3)CC2)c2ccccc21` [Free-base Amorphous, (R)—N—((S)-1-(4-(3,3-dimethyl-2-oxoindolin-1-yl)piperidin-1-yl)-1-oxo-4-phenylbutan-2-yl)piperidine-3-carboxamide], the weight gain % in series [1] (50% RH) was found to be 5.2%; in series [1] (60% RH), 7.1%; in series [1] (70% RH), 9.5%; in series [1] (80% RH), 11.7%; in series [1] (90% RH), 17.9%. For the same molecule, the “water absorbed (water adsorption)” value in series [1] is 17.9 wt %. The “other arising degradation products (not existing at Day 0)” value in series [2] is “four”. This molecule also came in with an amount remaining in series [2] of 97.2%. Further, the “arising degradation products (peaks) due to irradiating light” value in series [3] (13 days) amounted to 2 peaks; in series [3] (26 days) it was 4 peaks; in series [3] (50 days), 4 peaks.

Take `CC1(C)C(=O)N(C2CCN(C(=O)[C@H](CCc3ccccc3)NC(=O)[C@@H]3CCCNC3)CC2)c2ccccc21.Cl` [HCl-salt Amorphous, (R)—N—((S)-1-(4-(3,3-dimethyl-2-oxoindolin-1-yl)piperidin-1-yl)-1-oxo-4-phenylbutan-2-yl)piperidine-3-carboxamide amorphous solid of hydrochloride]: the weight gain % in series [1] (50% RH, hydrochloride) is recorded as 5.2%; in series [1] (60% RH, hydrochloride), 7.6%; in series [1] (70% RH, hydrochloride), 9.4%; in series [1] (80% RH, hydrochloride), 13.3%; in series [1] (90% RH, hydrochloride) it was 20.5%. In addition, the “water absorbed (water adsorption)” value in series [1] (hydrochloride) stood at 20.5 wt %. The “other arising degradation products (not existing at Day 0)” value in series [2] is “one”. Moreover, in series [2], the amount remaining amounted to 97.0%. For the same molecule, the “arising degradation products (peaks) due to irradiating light” value worked out at 2 peaks in series [3] (13 days), 5 peaks in series [3] (26 days) and 5 peaks in series [3] (50 days).

Regarding `CC1(C)C(=O)N(C2CCN(C(=O)[C@H](CCc3ccccc3)NC(=O)[C@@H]3CCCNC3)CC2)c2ccccc21.Cl` [HCl-salt Crystalline Form B, (R)—N—((S)-1-(4-(3,3-dimethyl-2-oxoindolin-1-yl)piperidin-1-yl)-1-oxo-4-phenylbutan-2-yl)piperidine-3-carboxamide hydrochloride Crystalline Form B], the weight gain % was 0.0% in series [1] (50% RH); 0.0% in series [1] (60% RH); 0.0% in series [1] (70% RH); 4.9% in series [1] (80% RH); 8.6% in series [1] (90% RH). Further, the “water absorbed (water adsorption)” value in series [1] is given as at most 8.6 wt %. Also, the “stability in chiral analysis” value in series [6] is “preferable stability”.
